According to PubChem BioAssay (NCI):
Several values for one entry are separate records, joined by “and”; a condition that tells them apart may be missing. Equal entries are not always repeated.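 Where inhibition never reached the appropriate level, the endpoint shown equals the highest concentration tested. Otherwise, values were interpolated linearly from a five-concentration, 48-hour dose response in 96-well plates. Abbreviation: GI50, concentration required for 50% inhibition of growth. TGI denotes the concentration required for complete inhibition of growth.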 Where a SMILES comes first, the peptide text is derived from it. [ ]: non-standard residue; d: D form. The star is where a group is joined. ξ: configuration not given here. dIva = CC[C@@](C)(N)C(=O)O; Aib = CC(C)(N)C(=O)O; ξP = O=C(O)C1CCCN1; βAla = NCCC(=O)O; X5 = OCN*

Assays:
Assay in all cases: DTP human tumour cell line panel, 48 h
HT29 colon = test system: HT29 colon
K-562 leukemia = test system: K-562 leukemia
NCI-H226 lung = test system: NCI-H226 lung
OVCAR-8 ovarian = test system: OVCAR-8 ovarian
PC-3 prostate = test system: PC-3 prostate
SF-539 CNS = test system: SF-539 CNS
SNB-75 CNS = test system: SNB-75 CNS
SR leukemia = test system: SR leukemia
U251 CNS = test system: U251 CNS
UO-31 renal = test system: UO-31 renal

| Structure (SMILES) | GI50 (HT29 colon) | TGI (HT29 colon) [µM] | GI50 (K-562 leukemia) | TGI (K-562 leukemia) [µM] | GI50 (NCI-H226 lung) | TGI (NCI-H226 lung) | GI50 (OVCAR-8 ovarian) | TGI (OVCAR-8 ovarian) | GI50 (PC-3 prostate) | TGI (PC-3 prostate) | GI50 (SF-539 CNS) | TGI (SF-539 CNS) | GI50 (SNB-75 CNS) | TGI (SNB-75 CNS) | GI50 (SR leukemia) | TGI (SR leukemia) | GI50 (U251 CNS) | TGI (U251 CNS) [µM] | GI50 (UO-31 renal) | TGI (UO-31 renal) [µM] |
| --- | --- | --- | --- | --- | --- | --- | --- | --- | --- | --- | --- | --- | --- | --- | --- | --- | --- | --- | --- | --- |
| CC[C@@](C)(NC(=O)[C@H](C)NC(=O)CCNC(=O)C(C)(C)NC(=O)[C@H](C)NC(=O)[C@@H]1CCCN1C(=O)[C@@](C)(CC)NC(=O)[C@H](Cc1ccccc1)NC(=O)C1CCCN1C(=O)C(C)(C)NC(=O)C1CCCN1C(=O)C(C)(C)NC(C)=O)C(=O)NCCC(=O)N[C@@H](CC(C)C)C(=O)NC(C)(C)C(=O)NCCC(=O)N[C@@H](CC(C)C)C(=O)NC(C)(C)C(=O)NC(C)(C)C(=O)N[C@@H](CC(C)C)C(=O)NCCC(=O)NCO (stereo not given in full) (Ac-[Aib][ξP][Aib][ξP]F[dIva]PA[Aib][βAla]A[dIva][βAla]L[Aib][βAla]L[Aib][Aib]L[βAla]-X5) | 197 nM | 0.414 | 79.1 nM | 0.332 | 101 nM | 0.342 µM | 119 nM | 0.359 µM | 76.5 nM | 0.264 µM | 131 nM | 0.354 µM | 60.8 nM | 0.307 µM | 272 nM | 0.646 µM | 81.4 nM | 0.268 | 179 nM | 0.391 |
| C=CC(=O)Nc1cccc(Nc2nc(Nc3ccc(N4CCN(C(C)=O)CC4)cc3OC)ncc2C(F)(F)F)c1 | 2180 nM and 1550 nM | > 27.1 | 8120 nM and 5610 nM | > 100 | 3290 nM and 2380 nM | > 10 µM and 12.7 µM | 4050 nM and 3510 nM | > 10 µM and 98.2 µM | 9750 nM and 4730 nM | > 10 µM and 27.7 µM | 4470 nM and 3170 nM | > 10 µM and 14.2 µM | 5180 nM and 2470 nM | > 10 µM and 15.3 µM | 3370 nM and 1450 nM | 8.32 µM and > 45.3 µM | 4750 nM and 4080 nM | > 100 | 2050 nM and 1760 nM | > 68.6 |
| CN1C(=O)C(C)(C)Oc2c(-c3cn(C)c(=O)c4[nH]ccc34)cc(S(C)(=O)=O)cc21 | 339 nM | > 100 | 765 nM | > 100 | 2260 nM | > 100 µM | 1810 nM | > 100 µM | 2010 nM | > 100 µM | 580 nM | 40.3 µM | 155 nM | 1.49 µM | 469 nM | > 100 µM | 1520 nM | > 100 | 431 nM | > 100 |
| COc1cc2c3c(n(CCCN4CCN(CCO)CC4)c(=O)c2cc1OC)-c1cc2c(cc1C3=O)OCO2 | 3060 nM | 15.9 | 5950 nM | 29.4 | 7490 nM | 28.4 µM | 7620 nM | 28.3 µM | 13200 nM | 35.4 µM | 1460 nM | 6.3 µM | 9870 nM | 31.7 µM | – | 1.34 µM | > 33700 nM | > 48.6 | > 91500 nM | > 100 |
| N#CC(CC(=O)O)=C(c1ccccc1)c1ccccc1 | – | > 100 | – | > 100 | – | > 100 µM | – | > 100 µM | – | > 100 µM | – | > 100 µM | – | > 100 µM | – | > 100 µM | – | > 100 | – | > 100 |
| COc1ccc2c(c1)NC(=O)CN2c1nc(C)nc2ccccc12 | 0.307 nM | – | 0.359 nM | > 100 | – | > 100 µM | 0.524 nM | > 100 µM | 0.636 nM | > 100 µM | 0.298 nM | 0.00144 µM | 0.36 nM | > 100 µM | – | > 100 µM | 0.437 nM | > 100 | – | > 100 |
| COC(=O)CCc1c(/C=C2\N=C(c3ccc[nH]3)C=C2OC)[nH]c(C)c1C(=O)OCc1ccccc1 | 138 nM | 1.68 | 252 nM | 3.39 | 532 nM | 4.75 µM | 432 nM | 5.75 µM | 228 nM | > 37.6 µM | 363 nM | 1.83 µM | 315 nM | 1.8 µM | 185 nM | 1.72 µM | 360 nM | 2.28 | 155 nM | 0.359 |
| CNCC1CCn2c(c(C3=C(c4cn(C)c5ccccc45)C(=O)NC3=O)c3ccccc32)C1 (stereo not given) | 2790 nM | 8.18 | 3290 nM | 8.41 | 3230 nM | 14.2 µM | 3870 nM | 10.4 µM | 2390 nM | 8.79 µM | 3690 nM | 7.21 µM | 972 nM | 4.66 µM | 1790 nM | 8.78 µM | 2640 nM | 5.91 | 2600 nM | 6.49 |
